Results: patent US20210255168A1, “A METHOD OF PRECISION CANCER THERAPY” (KING FAISAL SPECIALIST HOSPITAL & RESEARCH CENTRE, priority 2018, published 2021)

Experiments:
Type in all cases: cell-based
[1] = test system: uPA mRNA in MDA-MB-231 cells; experiment: mRNA half-life (Actinomycin D, one-phase exponential decay); settings: MDA-MB-231, Actinomycin D 5 μg/ml; DMSO control >6 hr
Description: For half-life experiments, 5 μg/ml of Actinomycin D (ActD; Sigma-Aldrich, St Louis, Mo.) was added to the cells for 1, 2, 4 and 6 h prior to extraction of total RNA using Trizol. The reverse transcription reaction and quantitative PCR were performed as described above. The half-life of mRNAs was estimated using the one-phase exponential decay method using GraphPad Prism software (GraphPad Software, San Diego, Calif.).
To study the influence of PLK-1 inhibition on ARE-containing mRNA stability, the effect of volasertib treatment on the half-life of uPA was analyzed. Half-life of uPA mRNA was reduced from >6 hr to 0.5 hr in response to volasertib treatment compared to the DMSO control (FIG. 12C). […] Compatible with the findings of the inventors, the higher the level of PLK-1, the lower the TTP expression.

PD-1L = PD-1L expression; settings: FIG. 18
Description: FIG. 18: Volasertib reduces PD-1L expression.
These include IL-8, solute carrier family 2 member 1 (SLC2A1), uPA, uPAR, CXCR4, MMP13, PDL1, and HuR. The MDA-MB-231 cells were treated with 330 nM volasertib or DMSO for 24 hr, then quantitative RT-qPCR was performed in using FAM-labelled TaqMan probe of the above genes and normalized to GADPH (FIG. 11).

MDA-MB-231 cells [2] = experiment: Invasion assay (RTCA, Matrigel)
Description: (§1) MDA-MB-231 cells were seeded in 6-well cell culture plates and incubated overnight. The cells were treated with the selected protein kinase inhibitors and incubated overnight. Then they were reseeded onto the invasion chamber in serum-free media at a density of 2×10^4 cells per well using 16-well CIM-Plate in Real-Time Cell Analysis (RTCA) Dual Plate (DP) Analyzer (ACEA Bioscinece, California, USA) that was loaded inside the incubator. The lower chambers to which cells will migrate were prepared to contain chemoattractant consisted of 10% FBS. For invasion assays, Matrigel (BioCoat, BD Biosciences, MA) which resembles the complex extracellular environment found in many tissues was prepared and used to coat the upper chamber of CIM plates. Invasion and migration were monitored continuously over 72-hour period using RTCA Software (ACEA Bioscinece, California, USA). The RTCA Instrument automatically monitors the cells every 15 minutes for 100 repetitions. For proliferation assays, the same principle was applied using a single chamber containing complete DMEM media (FIG. 10).
(§2) Based on the dose-response curve, 330 nM was selected to be used as a standard dose for the experiments. In the invasion assay, MDA-MB-231 cells were treated with volasertib or DMSO for 24 hr, then invasion was monitored for 30 hr.

[3] = test system: TTP mRNA in MDA-MB-231 cells; experiment: qPCR for TTP mRNA expression; settings: MDA-MB-231, 24 h, vs DMSO
Description: (§3) Cells were cultured in six-well plates and either treated with DMSO or drugs for 24 h. Total RNA was then extracted using Trizol reagent (TRI Reagent, Sigma-Aldrich, St Louis, Mo.). The cells were lysed directly on the culture dish by adding 1 ml of the TRI Reagent per 10 cm^2 surface area. Reverse transcription for preparation of cDNA was performed using 3 μg of total RNA, 150 ng random primers, 0.1 M dithiothreitol (DTT), 10 mM deoxynucleotide triphosphate (dNTP) and 200 U of SuperScript II (Invitrogen, Foster City, Calif.). The quantitative RT-QPCR was performed in multiplex in the Chroma 4 DNA Engine cycler (BioRad, Hercules, Calif., USA) using FAM-labelled TaqMan probes (Applied Biosystems, Foster City, Calif., USA) for TTP (ZFP36), HuR (ELAVL1), uPA (PLAU)-CXCR4, MMP-1, MMP-13, IL-8, PLK-1 while a VIC-labelled glyceraldehyde-3-phosphate dehydrogenase (GAPDH) probe was used as the endogenous control. Samples were amplified in triplicate and quantification of relative expression was performed using the estimation of quantitation cycle (Cq) method.
(§4) To study the influence of PLK-1 inhibition on ARE-containing mRNA stability, the effect of volasertib treatment on the half-life of uPA was analyzed. Half-life of uPA mRNA was reduced from >6 hr to 0.5 hr in response to volasertib treatment compared to the DMSO control (FIG. 12C). […]

[4] = test system: MDA-MB-231, MCF7, and SKBR3 cell lines; experiment: mRNA expression in breast cancer cell lines
Description: as §3
PLK1 kinase, as an example of kinases involved in cancer, is over-expressed in breast cancer cell lines, including MCF7, MDA-MB-231 and SKBR3 when compared to the normal-like MCF10A (FIG. 5A). Many kinases are either over-expressed or constitutively active or hyperactive in cancer states when compared to normal cells. As example of inhibitors that are found in the precision cancer therapy screen, Volasertib and Regorafenib (VEGFR kinase inhibitor) led to reduction in the level of ARE-containing mRNA, uPA in most of the cancer cell lines. (FIG. 5B).
The present inventors further disclose that the effect of PLK-1 inhibition is consistent among different types of breast cancer including triple-negative, […], and ER-PR negative breast cancers, as shown through the actions induced by PLK-1 inhibitor volasertib on MDA-MB-231, MCF7, and SKBR3 cell lines, namely increasing the expression of TTP, decreasing the HuR level, and downregulating the TTP target uPA. […] Accordingly, the present inventor discloses that any protein kinase inhibitor which post-transcriptionally regulates expression of cancer-related genes is suitable for precision cancer therapy. Further disclosed is a method of treatment of cancer comprising administering said protein kinase inhibitor, to a patient in need thereof.

[5] = test system: TNF-α-ARE luciferase reporter in MDA-MB-231 cells; experiment: Post-transcriptional ARE luciferase reporter assay (kinase inhibitor library screen); settings: 0.5, 2 and 5 μM, ARE and non-ARE reporters
MDA-MB-231 cells [6] = experiment: Migration assay (RTCA, without Matrigel); settings: MDA-MB-231, thirty hours after treatment
Description: as §1, §2

MDA-MB-231 cells [7] = experiment: RNAseq analysis of global gene expression
Text: mRNA was extracted from DMSO- or volasertib-treated […]. cDNA libraries were made for sequencing a measure of transcript copy numbers that correspond to the abundance of each gene (FIG. 6A). […] Among those is 170 ARE-coding genes as derived by crossing with AU-rich element database. (FIG. 6B).

[8] = test system: HuR mRNA in MDA-MB-231 cells; experiment: qPCR for HuR mRNA expression; settings: MDA-MB-231, 24 h, vs DMSO
Description: as §3, §4

[9] = MDA-MB-231, MCF7, and SKBR3 cell lines

## CC[C@@H]1C(=O)N(C)c2cnc(Nc3ccc(C(=O)N[C@H]4CC[C@H](N5CCN(CC6CC6)CC5)CC4)cc3OC)nc2N1C(C)C [volasertib]
[1]
  half-life of uPA mRNA: 30 min
PD-1L
  PD-1L expression: reduces
MDA-MB-231 cells [2]; MDA-MB-231 treated 24 hr, monitored 30 hr, vs DMSO
  invasive behavior: reduced invasive behavior
MDA-MB-231 cells [2]; after treatment
  time at which the effect on invasion started: 6 h
[3]
  enhancement of TTP mRNA expression: 40%
[4]; MCF7, MDA-MB-231 and SKBR3, most of the cancer cell lines
  level of ARE-containing mRNA uPA in cancer cell lines: reduction
[4]; [9]
  HuR level: decreasing
  TTP target uPA: downregulating
  expression of TTP: increasing
[5]
  ARE-dependent mRNA regulation confirmed in later stages of screening compared to a non-ARE reporter: confirmed to be involved in ARE-dependent mRNA regulation
MDA-MB-231 cells [6]
  cell migration: reduce breast cancer cells migration
MDA-MB-231 cells [7]; crossed with AU-rich element database
  number of ARE-coding genes among the down-regulated genes: 170 genes
MDA-MB-231 cells [7]; p<0.001, vs DMSO
  number of genes down-regulated by at least 1.7-fold: 540 genes
[8]
  reduction of HuR mRNA expression: 60%
